Columns and labels:
Format in all cases: cell-based
Staphylococcus epidermis = conditions: for labeling (fluorescence, metabolic incorporation of the chemical reporter): 10 mM, 24 hours, Laboratory strain
Enterococcus durans = conditions: 10 mM, 24 hours; Laboratory strain
Aspergillus niger = conditions: for labeling (fluorescence, metabolic incorporation of the chemical reporter): 10 mM, 24 hours, Laboratory strain; for assimilation by the microorganism (in words): Aspergillus niger
[1] = test system: Serratia marcescens (second entry); conditions: 10 mM, 24 hours; second Serratia marcescens line (Table 1 order: Clinical strain)
Staphylococcus aureus = conditions: for labeling (fluorescence, metabolic incorporation of the chemical reporter): 10 mM, 24 hours, Clinical strain; for assimilation by the microorganism (in words): Staphylococcus aureus
[2] = test system: Acanthamoebae castellanii; conditions: for labeling (fluorescence, metabolic incorporation of the chemical reporter): 10 mM, 24 hours, ATCC 30234; for assimilation by the microorganism (in words): Acanthamoebae castellanii
[3] = test system: bacteria and Fungi as well as amoebas; assay: Labeling of living microorganisms, overall statement on all tested strains; conditions: broad range of bacteria and Fungi as well as amoebas
Cronobacter sakazakii = conditions: 10 mM, 24 hours; CIP 103183T
[4] = test system: Legionella pneumophila sg6; conditions: 10 mM, 24 hours; LG 0846 3022
Candida albicans = conditions: for labeling (fluorescence, metabolic incorporation of the chemical reporter): 10 mM, 24 hours, Laboratory strain; for assimilation by the microorganism (in words): Candida albicans
Vibrio cholerae = conditions: 10 mM, 24 hours; CIP 104151
Bacillus cereus paris = conditions: 10 mM, 24 hours; Laboratory strain
Geotrichum candidum = conditions: for labeling (fluorescence, metabolic incorporation of the chemical reporter): 10 mM, 24 hours, CNCM 1447-83; for assimilation by the microorganism (in words): Geotrichum candidum
Escherichia coli O86 = conditions: 10 mM, 24 hours; Laboratory strain
[5] = test system: Pseudomonas fluorescens Paris; conditions: 10 mM, 24 hours; Laboratory strain
Escherichia coli K12 = conditions: 10 mM, 24 hours; MG1655
Neisseria gonorrhoeae = conditions: for labeling (fluorescence, metabolic incorporation of the chemical reporter): 10 mM, 24 hours, CIP 79.18T; for assimilation by the microorganism (in words): Neisseria gonorrhoeae
[6] = test system: Bacillus cereus (first entry); conditions: 10 mM, 24 hours; first Bacillus cereus line (Table 1 order: Laboratory strain)
[7] = test system: Legionella pneumophila sg1 Paris; conditions: 10 mM, 24 hours; CIP 33152
[8] = test system: Staphylococcus saprophyticus; conditions: 10 mM, 24 hours; Clinical strain
[9] = test system: Stenotrophomonas maltophilia; conditions: 10 mM, 24 hours; Clinical strain
[10] = test system: Serratia marcescens (first entry); conditions: 10 mM, 24 hours; first Serratia marcescens line (Table 1 order: CIP 102446)
Acinetobacter baumannii = conditions: 10 mM, 24 hours; ATCC 17978
Micrococcus luteus = conditions: for labeling (fluorescence, metabolic incorporation of the chemical reporter): 10 mM, 24 hours, Laboratory strain; for assimilation by the microorganism (in words): Micrococcus luteus
[11] = test system: Salmonella typhimurium 12023; conditions: 10 mM, 24 hours; Laboratory strain
Bacillus subtilis = conditions: for labeling (fluorescence, metabolic incorporation of the chemical reporter): 10 mM, 24 hours, Laboratory strain; for assimilation by the microorganism (in words): Bacillus subtilis
Proteus mirabills = conditions: 10 mM, 24 hours; Clinical strain
Enterococcus faecalis = conditions: for labeling (fluorescence, metabolic incorporation of the chemical reporter): 10 mM, 24 hours, Laboratory strain; for assimilation by the microorganism (in words): Enterococcus faecalis
[12] = test system: Listeria monocytogenes 1/2; conditions: for labeling (fluorescence, metabolic incorporation of the chemical reporter): 10 mM, 24 hours, CIP 82.110pT; for assimilation by the microorganism (in words): Listeria monocytogenes
Streptococcus agalactiae = conditions: 10 mM, 24 hours; Clinical strain
[13] = test system: Bacillus cereus (second entry); conditions: 10 mM, 24 hours; second Bacillus cereus line (Table 1 order: CIP 66.24T)
[14] = test system: Staphylococcus aureus aureus; conditions: for labeling (fluorescence, metabolic incorporation of the chemical reporter): 10 mM, 24 hours, IP 53-156; for assimilation by the microorganism (in words): Staphylococcus aureus aureus
[15] = test system: Klebsiella pneumoniae (second entry); conditions: 10 mM, 24 hours; second Klebsiella pneumoniae line (Table 1 order: Clinical strain)
[16] = test system: Klebsiella pneumoniae (first entry); conditions: 10 mM, 24 hours; first Klebsiella pneumoniae line (Table 1 order: CIP 101114)
Fusarium = conditions: for labeling (fluorescence, metabolic incorporation of the chemical reporter): 10 mM, 24 hours, CNCM 1149-76; for assimilation by the microorganism (in words): Fusarium
Providencia stuartii = conditions: 10 mM, 24 hours; Clinical strain
Neisseria meningitides = conditions: 10 mM, 24 hours; CIP 107858

[N-]=[N+]=NC[C@H]1OC(O)[C@@H](O)[C@@H]1O (stereo partly drawn) [Ara-N3, 5-Azido-5-deoxy-D-arabinofuranose]
labeling (fluorescence, metabolic incorporation of the chemical reporter) (Staphylococcus epidermis): +
labeling (fluorescence, metabolic incorporation of the chemical reporter) (Enterococcus durans): +
labeling (fluorescence, metabolic incorporation of the chemical reporter) (Aspergillus niger): +
assimilation by the microorganism (in words) (Aspergillus niger): assimilated
labeling (fluorescence, metabolic incorporation of the chemical reporter) [1]: +
labeling (fluorescence, metabolic incorporation of the chemical reporter) (Staphylococcus aureus): +
assimilation by the microorganism (in words) (Staphylococcus aureus): assimilated
labeling (fluorescence, metabolic incorporation of the chemical reporter) [2]: +
assimilation by the microorganism (in words) [2]: assimilated
labeling of all tested microorganisms (in words) [3]: all tested microorganisms were labeled
labeling (fluorescence, metabolic incorporation of the chemical reporter) (Cronobacter sakazakii): +
labeling (fluorescence, metabolic incorporation of the chemical reporter) [4]: +
labeling (fluorescence, metabolic incorporation of the chemical reporter) (Candida albicans): +
assimilation by the microorganism (in words) (Candida albicans): assimilated
labeling (fluorescence, metabolic incorporation of the chemical reporter) (Vibrio cholerae): +
labeling (fluorescence, metabolic incorporation of the chemical reporter) (Bacillus cereus paris): +
labeling (fluorescence, metabolic incorporation of the chemical reporter) (Geotrichum candidum): +
assimilation by the microorganism (in words) (Geotrichum candidum): assimilated
labeling (fluorescence, metabolic incorporation of the chemical reporter) (Escherichia coli O86): +
labeling (fluorescence, metabolic incorporation of the chemical reporter) [5]: +
labeling (fluorescence, metabolic incorporation of the chemical reporter) (Escherichia coli K12): +
labeling (fluorescence, metabolic incorporation of the chemical reporter) (Neisseria gonorrhoeae): +
assimilation by the microorganism (in words) (Neisseria gonorrhoeae): assimilated
labeling (fluorescence, metabolic incorporation of the chemical reporter) [6]: +
labeling (fluorescence, metabolic incorporation of the chemical reporter) [7]: +
labeling (fluorescence, metabolic incorporation of the chemical reporter) [8]: +
labeling (fluorescence, metabolic incorporation of the chemical reporter) [9]: +
labeling (fluorescence, metabolic incorporation of the chemical reporter) [10]: +
labeling (fluorescence, metabolic incorporation of the chemical reporter) (Acinetobacter baumannii): +
labeling (fluorescence, metabolic incorporation of the chemical reporter) (Micrococcus luteus): +
assimilation by the microorganism (in words) (Micrococcus luteus): assimilated
labeling (fluorescence, metabolic incorporation of the chemical reporter) [11]: +
labeling (fluorescence, metabolic incorporation of the chemical reporter) (Bacillus subtilis): +
assimilation by the microorganism (in words) (Bacillus subtilis): assimilated
labeling (fluorescence, metabolic incorporation of the chemical reporter) (Proteus mirabills): +
labeling (fluorescence, metabolic incorporation of the chemical reporter) (Enterococcus faecalis): +
assimilation by the microorganism (in words) (Enterococcus faecalis): assimilated
labeling (fluorescence, metabolic incorporation of the chemical reporter) [12]: +
assimilation by the microorganism (in words) [12]: assimilated
labeling (fluorescence, metabolic incorporation of the chemical reporter) (Streptococcus agalactiae): +
labeling (fluorescence, metabolic incorporation of the chemical reporter) [13]: +
labeling (fluorescence, metabolic incorporation of the chemical reporter) [14]: +
assimilation by the microorganism (in words) [14]: assimilated
labeling (fluorescence, metabolic incorporation of the chemical reporter) [15]: +
labeling (fluorescence, metabolic incorporation of the chemical reporter) [16]: +
labeling (fluorescence, metabolic incorporation of the chemical reporter) (Fusarium): +
assimilation by the microorganism (in words) (Fusarium): assimilated
labeling (fluorescence, metabolic incorporation of the chemical reporter) (Providencia stuartii): +
labeling (fluorescence, metabolic incorporation of the chemical reporter) (Neisseria meningitides): +

[N-]=[N+]=NC[C@@H](O)C1OC(O)(C(=O)O)CC(O)[C@H]1O (some centres unmarked) [Kdo-N3, reference compound]
labeling (fluorescence, metabolic incorporation of the chemical reporter) (Staphylococcus epidermis): −
assimilation by the microorganism (in words) (Staphylococcus epidermis; Staphylococcus epidermis): did not assimilate
labeling (fluorescence, metabolic incorporation of the chemical reporter) (Aspergillus niger): −
assimilation by the microorganism (in words) (Aspergillus niger): did not assimilate
labeling (fluorescence, metabolic incorporation of the chemical reporter) [1]: +
labeling (fluorescence, metabolic incorporation of the chemical reporter) (Staphylococcus aureus): −
assimilation by the microorganism (in words) (Staphylococcus aureus): did not assimilate
labeling (fluorescence, metabolic incorporation of the chemical reporter) [2]: −
assimilation by the microorganism (in words) [2]: did not assimilate
labeling (fluorescence, metabolic incorporation of the chemical reporter) (Cronobacter sakazakii): +
labeling (fluorescence, metabolic incorporation of the chemical reporter) [4]: +
labeling (fluorescence, metabolic incorporation of the chemical reporter) (Candida albicans): −
assimilation by the microorganism (in words) (Candida albicans): did not assimilate
labeling (fluorescence, metabolic incorporation of the chemical reporter) (Vibrio cholerae): +
labeling (fluorescence, metabolic incorporation of the chemical reporter) (Geotrichum candidum): −
assimilation by the microorganism (in words) (Geotrichum candidum): did not assimilate
labeling (fluorescence, metabolic incorporation of the chemical reporter) (Escherichia coli O86): +
labeling (fluorescence, metabolic incorporation of the chemical reporter) [5]: +
labeling (fluorescence, metabolic incorporation of the chemical reporter) (Escherichia coli K12): +
labeling (fluorescence, metabolic incorporation of the chemical reporter) (Neisseria gonorrhoeae): −
assimilation by the microorganism (in words) (Neisseria gonorrhoeae): did not assimilate
labeling (fluorescence, metabolic incorporation of the chemical reporter) [7]: +
labeling (fluorescence, metabolic incorporation of the chemical reporter) [9]: +
labeling (fluorescence, metabolic incorporation of the chemical reporter) [10]: +
labeling (fluorescence, metabolic incorporation of the chemical reporter) (Acinetobacter baumannii): +
labeling (fluorescence, metabolic incorporation of the chemical reporter) (Micrococcus luteus): −
assimilation by the microorganism (in words) (Micrococcus luteus): did not assimilate
labeling (fluorescence, metabolic incorporation of the chemical reporter) [11]: +
labeling (fluorescence, metabolic incorporation of the chemical reporter) (Bacillus subtilis): −
assimilation by the microorganism (in words) (Bacillus subtilis): did not assimilate
labeling (fluorescence, metabolic incorporation of the chemical reporter) (Proteus mirabills): +
labeling (fluorescence, metabolic incorporation of the chemical reporter) (Enterococcus faecalis): −
assimilation by the microorganism (in words) (Enterococcus faecalis): did not assimilate
labeling (fluorescence, metabolic incorporation of the chemical reporter) [12]: −
assimilation by the microorganism (in words) [12]: did not assimilate
labeling (fluorescence, metabolic incorporation of the chemical reporter) [14]: −
assimilation by the microorganism (in words) [14]: did not assimilate
labeling (fluorescence, metabolic incorporation of the chemical reporter) [15]: +
labeling (fluorescence, metabolic incorporation of the chemical reporter) [16]: +
labeling (fluorescence, metabolic incorporation of the chemical reporter) (Fusarium): −
assimilation by the microorganism (in words) (Fusarium): did not assimilate
labeling (fluorescence, metabolic incorporation of the chemical reporter) (Providencia stuartii): +
labeling (fluorescence, metabolic incorporation of the chemical reporter) (Neisseria meningitides): +

Reference: US11187705B2, “Method for labeling specifically living microorganisms comprising the use of modified monosaccharide compounds” (CENTRE NATIONAL DE LA RECHERCHE SCIENTIFIQUE (CNRS), priority 2015, dated 2021)
